What was measured:
[1] = tested on: synthetic oligoribonucleotide substrate of 15 nucleotides, mutant N-ras mRNA (codon 13); experiment: Kinetics with synthetic substrates (multiple turnover), ribozymes against mutant N-ras; assay type: biochemical; details: Table IA, Michaelis-Menten conditions; for kcat: 37° C., 10 mM MgCl2
Method: (§1) In one investigation, short synthetic oligoribonucleotides of 15 nucleotides chain length served as substrates. Cleavage kinetics of all ribozymes were carried out under Michaelis-Menten conditions. […] Ribozymes RE990 or RE1035 against the wild type mRNA as well as their substrate complexes on the other hand reveal Tm values of approximately 52° C.
(§2) Kinetic constants Km and kcat were determined from Eadie-Hofstee plots carried out with 5'-^32 P-labeled substrate. The RNA substrate was labeled by reaction with T4 polynucleotide kinase and [γ-^32P]-ATP. 5'-end labeled substrate was purified from [γ-^32 P]-ATP with CENTRICON-3 tubes. Ribozyme and substrate were heated separately for 1 min at 75° C. in 50 mM Tris-Cl (pH 7.5). After cooling to 37° C. for 5 min, 100 mM MgCl2 were added to a final concentration of 10 mM, and the solution was incubated for an additional 5 min at 37° C. Multiple turnover reactions were carried out in a volume of 100 μl with concentrations of substrate between 20-500 nM and ribozyme concentrations from 2 to 5 nM in 50 mM Tris-Cl (pH 7.5) and 10 mM MgCl2 at 37° C. Reactions were initiated by addition of ribozyme. The reaction was stopped by mixing the ribozymes with an equal volume of stop solution (8 M urea, 25 mM EDTA). The cleavage reactions were analyzed on 20% denaturing polyacrylamide gels (8 M urea) and scanned on a Molecular Dynamic Phosphorimaging system.

[2] = tested on: in vitro transcribed wild type N-ras mRNA; experiment: Kinetics with in vitro transcribed RNA (single-turnover), wild type; assay type: biochemical; details: for cleavage of wild type N-ras mRNA: ribozymes directed against mutant mRNA
Text: (§3) In a further investigation, RNA containing the mutant or wild type N-ras sequence from transcription initiation site to termination site was synthesized by in vitro transcription. In order to achieve efficient mRNA cleavage, the target sequence of the substrate (NUX-triplet, N=A,G,C,U; X=C,A,U) is not allowed to be double-stranded or part of a stable hairpin. The in vitro transcribed RNA served as substrate for five ribozymes mentioned above. The catalytic efficiency was examined under "single-turnover" conditions to detect the splice products.
(§4) For in vitro transcription, pMS5-NRAS, pMS5A-NRAS and pMS5B-NRAS were linearized by EcoRI digestion, phenol-extracted and ethanol-precipitated. Transcription was carried out in a 100 μl mixture containing 50 ng/μl linearized plasmid DNA, 10 mM DTT, 40 mM Tris-Cl (pH 7.5), 50 mM NaCl, 8 mM MgCl2, 2 mM spermidine, 500 μM rNTP's, 0.8 U/μl RNAse-lnhibitor, 2 μCi/μl [α-^32 P]-ATP and 2.5 U/μl T7 RNA Polymerase. A one-hour incubation at 37° C. was followed by the addition of 25 Units of DNAsel, and the mixture was incubated for an additional 30 min at 37° C. After subsequent phenol extraction, the aqueous phase was transferred into a CENTRICON-100 tube and centrifuged at 3,400 U/min for 30 min. The RNA-solution was checked for homogeneity by UV absorption and 6% analytical PAGE (8 M urea). The solution was stored frozen at -20° C.
(§5) The cleavage efficiency under "single-turnover" conditions was determined in a volume of 10 μl using 20-1200 nM ribozyme, 50 mM Tris-Cl (pH 7.5) and 10 mM MgCl2. The reaction was initiated by addition of RNA substrate to a final concentration of 10 nM substrate over 1 h at 37° C. The reaction was stopped by mixing 8 μl of stop solution to each reaction. The reaction was analyzed on 6% denaturing polyacrylamide gels and scanned on a Molecular Dynamics Phosphor Imager. The single turnover kcat /Km values were determined as described by Heidenreich et al., J. Biol. Chem. 267:1904 (1992).

[3] = tested on: in vitro transcribed mutant N-ras mRNA (codon 13); experiment: Kinetics with in vitro transcribed RNA (single-turnover), mutant; assay type: biochemical
Text: as §3, §4, §5

[4] = tested on: synthetic substrate, mutant N-ras mRNA (codon 13); experiment: Melting curves (Tm) of ribozyme-substrate complexes, mutant; assay type: binding; details: ribozyme-substrate complex
Method: as §1
(§6) UV temperature curves were measured at 260 nm using a Varian Cary-1 UV/VIS-spectrophotometer. The target was prepared by dissolving the ribozyme in a buffer containing 50 mM Tris-Cl (pH 7.5) and 10 mM MgCl2. The sample was transferred in a cuvette with a 10 mm path length. The ribozyme was denatured at 80° C. for 5 min, and subsequently the substrate RNA and substrate DNA were added and the whole mixture was renatured at 1° C./min. Melting curves at 260 nm were performed by heating the solution in the cuvette at 0.75° C./min and acquiring absorbance data every 0.5° C. step until 80° C. was reached. The Tm value and thermodynamic parameters of transition were obtained by fitting data of a two transition state model with the GraFit version 2.0 from Sigma Chemicals Co. software using the method of Marky and Breslauer, Biopolymers 26:1601 (1987).

[5] = tested on: N-ras transformed NIH3T3 cells (mutation in codon 13, clones 2 and 4); experiment: Colony-forming soft agar assay, retrovirally mediated ribozyme; assay type: cell-based; details: beyond the effect of the retroviral vector alone
Method: The cells of the constitutively N-ras expressing clones 2 and 4 (mutation in codon 13) were subcultured in soft agar using the colony-forming agar assay of Cowley et al., Cell 77:841 (1994). The colony-forming agar assay is a semisolid method in which cells are suspended in a 0.3% agar upper layer and plated out over a 0.5% agar lower layer in Petri dishes. The lower layer was prepared by heating a 2.5% solution of agar in deionized water. After cooling the agar to 45° C. in a water bath, an agar mix of 0.5% agar was prepared by combining 25 ml of 1×DMEM medium, 10 ml of 2.5% agar, 10 ml of 2×DMEM medium, and 5 ml of fetal calf serum. One milliliter samples of the agar mix were pipetted into 35 mm Petri culture dishes and stored at 4° C. for 30 minutes.
The upper layer was prepared by adding 0.2 ml of agar mix to 1 ml of about 5×10^4 cells/ml suspension, and adding DMEM medium to a total volume of 1.7 ml. One milliliter samples were pipette onto bottom agar layers and incubated for 14-21 days at 37° C. […]
The soft agar cultures were incubated for […] at 37° C. and 5% CO2. The reduction in transformed N-ras NIH3T3 cells was analyzed by counting cell clusters under a microscope. The soft agar preparations were set up in quadruplicate for each construct and the mean values were calculated, as presented in Table VII.

[6] = tested on: synthetic oligoribonucleotide substrate of 15 nucleotides, wild-type N-ras mRNA (codon 64, 89 or 103); experiment: Kinetics with synthetic substrates (multiple turnover), ribozymes against wild-type N-ras; assay type: biochemical; details: for Km / kcat: Table IA, Michaelis-Menten conditions; for kcat: 37° C., 10 mM MgCl2
Method: as §1, §2

[7] = tested on: synthetic substrate, wild type N-ras mRNA; experiment: Melting curves (Tm) of ribozyme-substrate complexes, wild type; assay type: binding; details: ribozyme-substrate complex
Method: as §1, §6

[8] = Table IIA, single-turnover, transcribed N-ras mRNA
[9] = Table III, modified ribozymes, transcribed N-ras mRNA
[10] = Table IIB, single-turnover, transcribed RNA

| Substance | Km [1] | kcat [1] | cleavage of wild type N-ras mRNA [2] | Km [3, 8] | kcat [3, 8] | Km [3, 9] | kcat [3, 9] | Tm [4] | Km [6] | kcat [6] | Km [2, 8] | kcat [2, 8] | Tm [7] | other results |
| --- | --- | --- | --- | --- | --- | --- | --- | --- | --- | --- | --- | --- | --- | --- |
| 5'-CCAACACCUGAUGAGCGUUAGCGAAACCUGCU-3' (chemistry not given here) | 0.082 µM | 0.015 s⁻¹ | do not cleave | 0.071 µM | 266 10^6 × s^-1 | 0.071 µM | 266 10^6 × s^-1 | approximately 48 °C | – | – | – | – | – | reversion of the malignant phenotype [5]: about 18% |
| RE917: ribozyme against codon 64 of the wild-type N-ras mRNA, SEQ ID NO:14 (GGCACUGCUGAUGAGCGUUAGCUAAACUCUUC; chemistry not given here) | – | – | – | – | – | – | – | – | 0.078 µM | 0.013 s⁻¹ | 0.063 µM | 59 10^6 × s^-1 | – | Km [2, 10]: 0.063 µM; kreact [2, 10]: 59 10^6 s^-1; Km [2, 9]: 0.063 µM; kcat [2, 9]: 59 10^6 × s^-1 |
| RE990: ribozyme against codon 89 of the wild-type N-ras mRNA, SEQ ID NO:15 (CGCAAAUCUGAUGAGCGUUAGCGAAACUUGCU; chemistry not given here) | – | – | – | – | – | – | – | – | 0.404 µM | 0.004 s⁻¹ | 0.234 µM | 72 10^6 × s^-1 | approximately 52 °C | kcat /Km [6]: much less catalytic efficiency |
| 5'-UCCCAACCUGAUGAGCGUUAGCGAAACACCUG-3' (chemistry not given here) | 0.065 µM | 0.012 s⁻¹ | do not cleave | 0.113 µM | 137 10^6 × s^-1 | 0.113 µM | 137 10^6 × s^-1 | approximately 48 °C | – | – | – | – | – | Km [3, 10]: 0.113 µM; kreact [3, 10]: 137 10^6 s^-1 |
| RE1035: ribozyme against codon 103 of the wild-type N-ras mRNA, SEQ ID NO:16 (AGUCUUUCUGAUGAGCGUUAGCGAAACUCGCU; chemistry not given here) | – | – | – | – | – | – | – | – | 0.277 µM | 0.013 s⁻¹ | 0.425 µM | 44 10^6 × s^-1 | approximately 52 °C | – |
